The test system of assay [1] is PPAR-responsive element (PPRE). The experiment in a line: PPRE-driven (J3TKpGL3, apo-AII promoter) Dual-Luciferase reporter assay in melanoma cells. It counts as cell-based. The note with it: 10^−4 M, 40 h, human melanoma cells WM239A and A375P; vs non-ligand stimulated control. On the procedure:
The transcriptional activation of the PPRE promoter was tested using the J3TKpGL3 reporter plasmid, which contains a luciferase gene driven by the PPAR-responsive element (PPRE), which consists of three copies of the J site from the apo-AII gene promoter. The activation of PPAR elements was evaluated in melanoma cells following stimulation with a Firefly–Renilla Dual-Luciferase Reporter System (Promega, Madison, WI, USA). Experiments were carried out using human melanoma line WM239A and A375P (Trust Functional Genomics Cell Bank, London, UK) cells cultured in RPMI culture medium (ThermoFisher Scientific, Waltham, MA, USA) supplemented with 10% fetal bovine serum (EURx, Gdansk, Poland) at 37 °C, with a 5% CO2 content. […] Luciferase activity was measured using a commercial kit (Luciferase Assay System, Promega) according to the instructions of the supplier and assessed in a chemiluminometer (Synergy HT; Bio-Tek, Winooski, VT, USA)) using the Dual-Reporter Luciferase Assay System (Promega, Madison, WI, USA).
(In a reporter assay the amount or activity of a reporter protein is the signal.)

Assay [2] addresses T1, AhR (Homo sapiens, UniProt P35869).
T1 construct: purchased INDIGO Biosciences
T1 sequence (P35869 11-848): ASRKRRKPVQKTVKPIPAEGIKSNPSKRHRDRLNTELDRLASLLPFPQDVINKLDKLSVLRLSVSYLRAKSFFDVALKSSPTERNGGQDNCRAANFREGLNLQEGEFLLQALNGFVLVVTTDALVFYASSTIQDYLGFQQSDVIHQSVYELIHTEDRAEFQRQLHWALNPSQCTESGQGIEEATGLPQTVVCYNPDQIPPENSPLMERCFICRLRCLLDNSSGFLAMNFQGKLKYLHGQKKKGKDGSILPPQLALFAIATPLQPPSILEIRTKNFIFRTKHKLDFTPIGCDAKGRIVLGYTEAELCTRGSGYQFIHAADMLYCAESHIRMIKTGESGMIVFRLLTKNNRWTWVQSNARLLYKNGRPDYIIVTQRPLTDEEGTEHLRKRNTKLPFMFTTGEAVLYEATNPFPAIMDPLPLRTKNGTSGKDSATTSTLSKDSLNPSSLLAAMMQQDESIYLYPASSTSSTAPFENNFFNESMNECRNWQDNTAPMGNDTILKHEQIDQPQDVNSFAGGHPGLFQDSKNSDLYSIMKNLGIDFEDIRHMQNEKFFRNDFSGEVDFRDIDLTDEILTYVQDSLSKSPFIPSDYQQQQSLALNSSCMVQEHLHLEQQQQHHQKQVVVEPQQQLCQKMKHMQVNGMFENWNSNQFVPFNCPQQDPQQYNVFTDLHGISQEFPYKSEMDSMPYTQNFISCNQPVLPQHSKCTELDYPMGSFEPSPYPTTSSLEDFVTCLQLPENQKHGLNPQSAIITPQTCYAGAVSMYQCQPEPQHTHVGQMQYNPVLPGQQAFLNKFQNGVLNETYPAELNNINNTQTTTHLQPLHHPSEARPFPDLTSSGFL
The experiment in a line: cell-based Human AhR Reporter Assay System (luciferase). On the procedure:
Briefly, the reporter cells were recovered using the cell recovery medium for 5 h. […] Luciferase detection reagent was added after discarding the media and luminescence was measured using a Citation 5 Cell Imaging Multi-Mode Reader (BioTek, Winooski, VT, USA).

Assay [3] concerns the target T2, PPARγ ligand-binding domain (Homo sapiens, UniProt P37231).
T2 construct: PPARγ-LBD was added to the compounds; purchased Life Technologies Corporation
T2 sequence (P37231 238-503 limits assumed): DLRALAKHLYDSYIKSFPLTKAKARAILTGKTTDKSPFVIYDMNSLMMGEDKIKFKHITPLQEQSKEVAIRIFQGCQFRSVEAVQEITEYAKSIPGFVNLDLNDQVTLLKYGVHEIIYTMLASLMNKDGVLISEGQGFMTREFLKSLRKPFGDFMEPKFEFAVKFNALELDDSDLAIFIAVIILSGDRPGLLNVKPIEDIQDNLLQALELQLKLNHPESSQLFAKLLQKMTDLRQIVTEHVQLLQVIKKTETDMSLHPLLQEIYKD
The experiment in a line: LanthaScreen TR-FRET PPARγ Coactivator Assay Kit (binding to PPARγ LBD). It counts as biochemical. The method, then:
A PPARγ receptor binding assay was performed using the LanthaScreen™ TR-FRET PPARγ Coactivator Assay Kit (Life Technologies Corporation, Grand Island, NY, USA) following the manufacturer’s protocol. Briefly, PPARγ-LBD was added to the compounds, followed by the addition of the antibody (Tb-anti-GST) and a mixture of peptide (Fluorescein-TRAP220/DRIP-2). The reaction mixture was incubated at room temperature for 2 h or overnight.
For orientation: Time-resolved FRET reads energy transfer from a long-lived donor to a nearby acceptor.

[4] abbreviates: Human AhR Reporter Assay System, two independent dose responses, 3 to 4 replicas per assay, mean ± spread (n = 2), read-out: EC50 (M) AhR.
Where [5] appears, read: value in Figure 1, representative experiment, read-out: EC50 (AhR, representative dose response, Figure 1).
The mark [6] stands for this setting: LanthaScreen TR-FRET PPARγ coactivator assay, PPARγ LBD, two independent dose responses, 3 to 4 replicas per assay, read-out: EC50 (M) PPARγ.
The mark [7] stands for this setting: value in Figure 3A, representative experiment, read-out: EC50 (PPARγ, representative dose response, Figure 3A).

Where two headings read alike, the source gives them in different places.

A word on the EC50: it is the concentration that produces a half-maximal response.

For `N[C@@H](Cc1c[nH]c2ccc(O)cc12)C(=O)O` [5(OH)tryptophan, 5-hydroxytryptophan], the “stimulation of transcriptional activity of (PPRE)3-containing ApoA-II gene promoter (luciferase, RLU)” value (shortened to “stimulation”) in assay [1] is “statistically significant stimulation”.
`COc1ccc2[nH]cc(CCN)c2c1` [5-MTT, 5-methoxytryptamine]: the EC50 is 0.0005 M in assay [2] (EC50 (AhR, representative dose response, Figure 1), value in Figure 1, representative experiment); 0.00029 M in assay [2] (EC50 (M) AhR, Human AhR Reporter Assay System, two independent dose responses, 3 to 4 replicas per assay, mean ± spread (n = 2)); 3e-05 M in assay [3] (EC50 (M) PPARγ, LanthaScreen TR-FRET PPARγ coactivator assay, PPARγ LBD, two independent dose responses, 3 to 4 replicas per assay); 6.3e-05 M in assay [3] (EC50 (PPARγ, representative dose response, Figure 3A), value in Figure 3A, representative experiment).
In the case of `COc1cc2c(CCNC(C)=O)c[nH]c2cc1O` [6-Hydroxymelatonin, 6-hydroxymelatonin], the EC50 in assay [2] (setting [4]) came to 3.1e-05 M; in assay [2] (setting [5]), 3.3e-05 M; in assay [3] (setting [6]), 0.0037 M; in assay [3] (setting [7]), 0.0001 M. The “stimulation” value in assay [1] is “statistically significant stimulation”.
For the molecule `COc1ccc(NC=O)c(C(=O)CCNC(C)=O)c1` [AFMK, N^1-acetyl-N^2-formyl-5-methoxykynuramine], the EC50 was 4.4e-05 M in assay [2] (setting [4]), 7.5e-05 M in assay [2] (setting [5]), 0.00028 M in assay [3] (setting [6]) and 0.00011 M in assay [3] (setting [7]). Besides, the “stimulation” value in assay [1] is “statistically significant stimulation”.
In the case of `COc1ccc2[nH]cc(CCNC(C)=O)c2c1` [Melatonin, N-acetyl-5-methoxytryptamine, reference compound], the EC50 was found to be 0.0012 M in assay [3] (setting [6]) and 0.00095 M in assay [3] (setting [7]). Further, the “stimulation” value in assay [1] is listed as “statistically significant stimulation”.

The values are drawn from PMC10607054 (International Journal of Molecular Sciences, 2023).
